Experiments:
human recombinant HDAC6 = target: T1, human recombinant HDAC6 (Homo sapiens, UniProt Q9UBN7); assay: ZMAL trypsin assay, HDAC6; assay type: biochemical; details: for inhibition at 10 µM: ZMAL trypsin assay
T1 construct: purchased BPS Bioscience 50006
T1 sequence (Q9UBN7 1-1215): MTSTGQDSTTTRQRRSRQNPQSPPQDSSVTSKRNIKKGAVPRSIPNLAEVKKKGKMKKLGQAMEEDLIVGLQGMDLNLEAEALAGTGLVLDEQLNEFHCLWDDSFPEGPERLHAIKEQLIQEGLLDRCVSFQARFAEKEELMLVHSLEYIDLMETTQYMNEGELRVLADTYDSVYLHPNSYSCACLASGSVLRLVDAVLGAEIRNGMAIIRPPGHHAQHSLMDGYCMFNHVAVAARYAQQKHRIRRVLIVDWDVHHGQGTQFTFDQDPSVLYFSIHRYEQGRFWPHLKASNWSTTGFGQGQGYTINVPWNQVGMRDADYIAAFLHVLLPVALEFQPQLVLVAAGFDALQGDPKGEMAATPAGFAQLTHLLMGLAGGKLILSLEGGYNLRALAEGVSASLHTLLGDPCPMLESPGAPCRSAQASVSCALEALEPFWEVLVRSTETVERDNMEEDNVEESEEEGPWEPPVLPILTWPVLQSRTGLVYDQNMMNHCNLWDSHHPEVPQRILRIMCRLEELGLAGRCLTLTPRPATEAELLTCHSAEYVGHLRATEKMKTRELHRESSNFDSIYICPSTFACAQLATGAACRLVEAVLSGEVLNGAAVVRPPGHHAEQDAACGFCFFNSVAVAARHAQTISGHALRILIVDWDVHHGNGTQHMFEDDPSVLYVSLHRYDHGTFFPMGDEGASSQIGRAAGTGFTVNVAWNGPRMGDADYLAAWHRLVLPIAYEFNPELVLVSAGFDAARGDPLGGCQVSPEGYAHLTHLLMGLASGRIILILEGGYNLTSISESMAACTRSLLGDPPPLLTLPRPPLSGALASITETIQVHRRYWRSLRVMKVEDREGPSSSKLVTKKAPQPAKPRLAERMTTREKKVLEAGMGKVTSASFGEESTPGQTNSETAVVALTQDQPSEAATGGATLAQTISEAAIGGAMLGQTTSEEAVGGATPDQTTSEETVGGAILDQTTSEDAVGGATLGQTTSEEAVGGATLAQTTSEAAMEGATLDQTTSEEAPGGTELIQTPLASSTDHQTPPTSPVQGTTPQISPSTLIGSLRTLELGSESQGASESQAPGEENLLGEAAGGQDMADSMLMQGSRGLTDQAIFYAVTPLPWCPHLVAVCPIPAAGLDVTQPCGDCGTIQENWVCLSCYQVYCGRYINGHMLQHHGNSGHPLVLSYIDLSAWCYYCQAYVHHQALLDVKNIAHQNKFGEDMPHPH
Method: (§1) [28] Assays for HDAC1/6 were prepared according to: B. Heltweg , J. Trapp , M. Jung , Methods 2005, 36, 332–337; assays for HDAC8 were prepared according to: J. Senger , J. Melesina , M. Marek , C. Romier , I. Oehme , O. Witt , W. Sippl , M. Jung , J. Med. Chem. 2016, 59, 1545–1555. […]
(§2) hHDAC1/6: Activity assays were performed in OptiPlateTM-96 F black microplates (PerkinElmer). Commercial available enzymes (human recombinant HDAC1; BPS Bioscience, catalog no. 50051 and human recombinant HDAC6; BPS Bioscience, catalog no. 50006) were used. Total assay volume of 60 µL contains 42 µl of assay buffer (50 mM Tris -HCl, pH 8.0, 137 mM NaCl, 2.7 mM KCl, 1 mM MgCl2, 0.2 mM TCEP and 1 mg/mL bovine serum albumin), 10 µL of enzyme solution in assay buffer, 3 µL of increasing concentrations of inhibitors in DMSO and 5 μL of the fluorogenic substrate ZMAL (Z -(Ac)Lys-AMC) (126 μM). After incubation (90 min, 37 °C) 60 µL of stop solution, containing 5 μL Trichostatin A (TSA) (33 μM) and 10 μL trypsin (6 mg/mL) in trypsin buffer (Tris-HCl 50 mM, pH 8.0, NaCl 100 mM), were added. […]

human recombinant HDAC1 = target: T2, human recombinant HDAC1 (Homo sapiens, UniProt Q13547); assay: ZMAL trypsin assay, HDAC1; assay type: biochemical; details: for inhibition at 10 µM: ZMAL trypsin assay
T2 construct: purchased BPS Bioscience 50051
Method: as §1, §2

T2 sequence (Q13547 whole entry): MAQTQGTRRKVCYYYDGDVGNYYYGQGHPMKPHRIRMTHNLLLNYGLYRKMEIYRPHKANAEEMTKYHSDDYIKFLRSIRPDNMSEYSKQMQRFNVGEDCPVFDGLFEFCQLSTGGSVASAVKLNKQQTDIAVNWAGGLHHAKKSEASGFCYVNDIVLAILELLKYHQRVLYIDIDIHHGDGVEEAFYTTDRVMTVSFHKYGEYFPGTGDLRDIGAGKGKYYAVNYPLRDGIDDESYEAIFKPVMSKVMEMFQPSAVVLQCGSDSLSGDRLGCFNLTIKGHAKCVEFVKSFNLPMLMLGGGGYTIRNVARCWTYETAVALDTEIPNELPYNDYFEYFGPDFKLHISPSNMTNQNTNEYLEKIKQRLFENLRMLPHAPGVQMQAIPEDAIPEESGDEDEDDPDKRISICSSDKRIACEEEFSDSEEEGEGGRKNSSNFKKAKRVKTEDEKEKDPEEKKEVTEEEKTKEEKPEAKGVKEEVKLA

| SMILES | HDAC6 inhibition (in words) (human recombinant HDAC6) | inhibition at 10 µM (human recombinant HDAC6) [%] | HDAC1 inhibition (in words) (human recombinant HDAC1) | inhibition at 10 µM (human recombinant HDAC1) [%] |
| --- | --- | --- | --- | --- |
| C=C[C@@H]1CC(=O)N[C@H](CCCC)C(=O)N[C@H](C)C(=O)N[C@H]([C@@H](C)CC)[C@@H](O)CC(=O)O1 [compound 28] | did not show inhibition | < 5 | did not show inhibition | < 5 |
| C=C[C@@H]1CC(=O)N[C@H](CCCC)C(=O)N[C@H](C)C(=O)N[C@H]([C@@H](C)CC)[C@@H](O[Si](C)(C)C(C)(C)C)CC(=O)O1 [compound 9] | did not show inhibition | < 5 | did not show inhibition | < 5 |
| CCCC[C@H]1NC(=O)C[C@@H](/C=C/CCC(=O)N(OC(=O)OC(C)(C)C)C(=O)OC(C)(C)C)OC(=O)C[C@H](O[Si](C)(C)C(C)(C)C)[C@@H]([C@@H](C)CC)NC(=O)[C@@H](C)NC1=O [compound 35] | not active | < 5 | not active | < 5 |

From paper PMC7756392, “Syntheses of Thailandepsin B Pseudo‐Natural Products: Access to New Highly Potent HDAC Inhibitors via Late‐Stage Modification” (Chemistry (Weinheim an Der Bergstrasse, Germany), 2020)
